# Measured values from patent publication US8889874B2, “Imidazolone-chalcone derivatives as potential anticancer agent and process for the preparation thereof” (Council of Scientific and Industrial Research, priority 2010, dated 2014).
# Like-named read-outs stand apart in the source and are kept apart here.
# Assays:
# Assay in all cases: NCI anticancer screen, SRB assay, 48 h
# Format in all cases: cell-based, human
# [1] = system: RXF 393 (renal); conditions: Homo sapiens
# Description: (§1) Some of biological activity studies were carried out at the National Cancer Institute (NCI), Maryland, USA.
# (§2) The compounds were evaluated for anticancer activity against fifty three human cancer cells derived from nine cancer types (leukemia cell line, non-small-cell lung cell line, colon cell line, CNS cell line, melanoma cell line, ovarian cell line, prostate cell line, and breast cancer cell line) as shown in Table 1. For each compound, dose response curves for each cell line were measured at a minimum of five concentrations at 10 fold dilutions. A protocol of 48 h continuous drug exposure was used and a sulforhodamine B (SRB) protein assay was used to estimate cell viability or growth.
# [2] = system: NCI-H460 (non-small cell lung); conditions: Homo sapiens
# Description: as §1, §2
# [3] = system: MDA-MB-231/ATCC (breast); conditions: Homo sapiens
# Description: as §1, §2
# [4] = system: SK-MEL-2 (melanoma); conditions: Homo sapiens
# Description: as §1, §2
# [5] = system: OVCAR-5 (ovarian); conditions: Homo sapiens
# Description: as §1, §2
# [6] = system: K-562 (leukemia cell line); conditions: Homo sapiens
# Description: as §1, §2
# [7] = system: SF-268 (CNS); conditions: Homo sapiens
# Description: as §1, §2
# [8] = system: PC-3 (prostate); conditions: Homo sapiens
# Description: as §1, §2
# [9] = system: MALME-3M (melanoma); conditions: Homo sapiens
# Description: as §1, §2
# [10] = system: OVCAR-8 (ovarian); conditions: Homo sapiens
# Description: as §1, §2
# [11] = system: SF-539 (CNS); conditions: Homo sapiens
# Description: as §1, §2
# [12] = system: NCI-H322M (non-small cell lung); conditions: Homo sapiens
# Description: as §1, §2
# [13] = system: HT29 (colon); conditions: Homo sapiens
# Description: as §1, §2
# [14] = system: HS 578T (breast); conditions: Homo sapiens
# Description: as §1, §2
# [15] = system: SW-620 (colon); conditions: Homo sapiens
# Description: as §1, §2
# [16] = system: LOX IMVI (melanoma); conditions: Homo sapiens
# Description: as §1, §2
# [17] = system: M14 (melanoma); conditions: Homo sapiens
# Description: as §1, §2
# [18] = system: BT-549 (breast); conditions: Homo sapiens
# Description: as §1, §2
# [19] = system: HOP-92 (non-small cell lung); conditions: Homo sapiens
# Description: as §1, §2
# [20] = system: SNB-75 (CNS); conditions: Homo sapiens
# Description: as §1, §2
# [21] = system: 786-0 (renal); conditions: Homo sapiens
# Description: as §1, §2
# [22] = system: UACC-62 (melanoma); conditions: Homo sapiens
# Description: as §1, §2
# [23] = system: SK-OV-3 (ovarian); conditions: Homo sapiens
# Description: as §1, §2
# [24] = system: SK-MEL-28 (melanoma); conditions: Homo sapiens
# Description: as §1, §2
# [25] = system: COLO 205 (colon); conditions: Homo sapiens, COLO 205
# Description: as §1, §2
# [26] = system: HOP-62 (non-small cell lung); conditions: Homo sapiens
# Description: as §1, §2
# [27] = system: OVCAR-3 (ovarian); conditions: Homo sapiens
# Description: as §1, §2
# [28] = system: MCF7 (breast); conditions: Homo sapiens
# Description: as §1, §2
# [29] = system: UO-31 (renal); conditions: Homo sapiens
# Description: as §1, §2
# [30] = system: SF-295 (CNS); conditions: Homo sapiens
# Description: as §1, §2
# [31] = system: ACHN (renal); conditions: Homo sapiens
# Description: as §1, §2
# [32] = system: NCI-H23 (non-small cell lung); conditions: Homo sapiens
# Description: as §1, §2
# [33] = system: NCI-H522 (non-small cell lung); conditions: Homo sapiens
# Description: as §1, §2
# [34] = system: EKVX (non-small cell lung); conditions: Homo sapiens
# Description: as §1, §2
# [35] = system: KM12 (colon); conditions: Homo sapiens
# Description: as §1, §2
# [36] = 48 h exposure, SRB, read-out: GI50
# [37] = read-out: pGI50 (-log of molar concentration causing 50% inhibition of net cell growth) (converted)
compound,measurement,setting,value
"O=C(/C=C/c1cccc(O)c1)c1cccc(-n2cc(-c3ccc4ccccc4c3)[nH]c2=O)c1 [12b, 1-3-[(E)-3-(3-hydroxyphenyl)-2-propenoyl]phenyl-4-(2-naphthyl)-2,3-dihydro-1H-2-imidazolone]",GI50,"[1]; RXF 393, 48 h exposure, SRB, read-out: GI50",1.41 µM
same,GI50,"[1]; RXF-393, read-out: pGI50 (-log of molar concentration causing 50% inhibition of net cell growth) (converted)",1.41 µM
same,GI50,[2]; [36],1.67 µM
same,GI50,[2]; [37],1.66 µM
same,GI50,[3]; [36],1.66 µM
same,GI50,[3]; [37],1.66 µM
same,GI50,[4]; [36],2.31 µM
same,GI50,[4]; [37],2.29 µM
same,GI50,[5]; [36],1.89 µM
same,GI50,[5]; [37],1.91 µM
same,GI50,"[6]; K562, 48 h exposure, SRB, read-out: GI50",1.43 µM
same,GI50,"[6]; K562, read-out: pGI50 (-log of molar concentration causing 50% inhibition of net cell growth) (converted)",1.45 µM
same,GI50,[7]; [36],1.73 µM
same,GI50,[7]; [37],1.74 µM
same,GI50,"[8]; PC-3, read-out: pGI50 (-log of molar concentration causing 50% inhibition of net cell growth) (converted)",1.86 µM
same,GI50,"[8]; one prostate cancer cell line (PC-3), exposure at least 48 hrs, read-out: GI50",1.85 µM
same,GI50,"[9]; Malme-3M, read-out: pGI50 (-log of molar concentration causing 50% inhibition of net cell growth) (converted)",2.09 µM
same,GI50,"[9]; MALME-3M, 48 h exposure, SRB, read-out: GI50",2.08 µM
same,GI50,[10]; [36],2.33 µM
same,GI50,[10]; [37],2.34 µM
same,GI50,[11]; [36],1.55 µM
same,GI50,[11]; [37],1.55 µM
same,GI50,[12]; [36],1.66 µM
same,GI50,[12]; [37],1.66 µM
same,GI50,"[13]; HT-29, 48 h exposure, SRB, read-out: GI50",1.54 µM
same,GI50,"[13]; HT-29, read-out: pGI50 (-log of molar concentration causing 50% inhibition of net cell growth) (converted)",1.55 µM
same,GI50,[14]; [36],2.01 µM
same,GI50,[14]; [37],2 µM
same,GI50,[15]; [36],0.22 µM
same,GI50,[15]; [37],0.219 µM
same,GI50,[16]; [36],0.85 µM
same,GI50,[16]; [37],0.851 µM
same,GI50,[17]; [36],1.49 µM
same,GI50,[17]; [37],1.48 µM
same,GI50,[18]; [36],1.89 µM
same,GI50,[18]; [37],1.91 µM
same,GI50,[19]; [36],0.51 µM
same,GI50,[19]; [37],0.513 µM
same,GI50,[20]; [36],1.88 µM
same,GI50,[20]; [37],1.86 µM
same,GI50,[21]; [36],1.74 µM
same,GI50,[21]; [37],1.74 µM
same,GI50,[22]; [36],1.8 µM
same,GI50,[22]; [37],1.82 µM
same,GI50,[23]; [36],2.15 µM
same,GI50,[23]; [37],2.14 µM
same,GI50,[24]; [36],3.79 µM
same,GI50,[24]; [37],3.8 µM
same,GI50,"[25]; COLO205, read-out: pGI50 (-log of molar concentration causing 50% inhibition of net cell growth) (converted)",2.09 µM
same,GI50,[25]; [36],2.09 µM
same,GI50,[26]; [36],2.26 µM
same,GI50,[26]; [37],2.24 µM
same,GI50,[27]; [36],1.33 µM
same,GI50,[27]; [37],1.32 µM
same,GI50,[28]; [36],0.47 µM
same,GI50,[28]; [37],0.468 µM
same,GI50,[29]; [36],1.26 µM
same,GI50,[29]; [37],1.26 µM
same,GI50,[30]; [36],1.44 µM
same,GI50,[30]; [37],1.45 µM
same,GI50,[31]; [36],1.57 µM
same,GI50,[31]; [37],1.58 µM
same,GI50,[32]; [36],1.52 µM
same,GI50,[32]; [37],1.51 µM
same,GI50,[33]; [36],1.29 µM
same,GI50,[33]; [37],1.29 µM
same,GI50,[34]; [36],2.64 µM
same,GI50,[34]; [37],2.63 µM
same,GI50,[35]; [36],1.21 µM
same,GI50,[35]; [37],1.2 µM
